Patent US20050209157A1, “Short bioactive peptides and methods for their use” (priority 2001, published 2005)
Converted amounts (≈) assume the structure as drawn. No end group written: not given here.

What was measured:
[1] = tested on: Escherichia coli ATCC 25922; experiment: Antimicrobial assay I, modified protocol (tryptic soy broth), MBC; details: minimum bactericidal concentration, Table 4
[2] = tested on: Pseudomonas aeruginosa ATCC 27853; experiment: as above; details: minimum bactericidal concentration, Table 4
[3] = tested on: Stapholococcus aureus ATCC 25923; experiment: as above; details: minimum bactericidal concentration, Table 4
[4] = tested on: Candida albicans ATCC 10231; experiment: Antimicrobial assay I, modified protocol (tryptic soy broth), MFC; details: minimum fungicidal concentration, Table 4

## CC(C)C[C@H](NC(=O)[C@H](CC(C)C)NC(=O)[C@H](CCCCN)NC(=O)[C@H](CCCCN)NC(=O)[C@H](C)NC(=O)[C@H](CC(C)C)NC(=O)[C@H](CCCCN)NC(=O)[C@H](CCCCN)NC(=O)[C@H](C)NC(=O)[C@@H](N)Cc1ccccc1)C(N)=O [compound 59]
[1]
  MBC E. coli A.25922: >50 mg/L
[2]
  MBC P. aerug A.27853: >50 mg/L
[3]
  MBC S. aur A.25923: >50 mg/L
[4]
  MFC Candida A.10231: >50 mg/L

## CC(C)C[C@H](NC(=O)[C@H](C)NC(=O)[C@H](C)NC(=O)[C@H](CCCCN)NC(=O)[C@H](C)NC(=O)[C@H](CC(C)C)NC(=O)[C@H](CCCCN)NC(=O)[C@H](CCCCN)NC(=O)[C@H](C)NC(=O)[C@H](CC(C)C)NC(=O)[C@H](CCCCN)NC(=O)[C@H](CCCCN)NC(=O)[C@H](C)NC(=O)[C@@H](N)Cc1ccccc1)C(N)=O [compound 76]
[1]
  MBC E. coli A.25922: 40 mg/L (≈ 26.7 µM)
[2]
  MBC P. aerug A.27853: >55 mg/L
[3]
  MBC S. aur A.25923: >55 mg/L
[4]
  MFC Candida A.10231: >50 mg/L

## CC(C)C[C@H](NC(=O)[C@H](C)NC(=O)[C@H](CCCCN)NC(=O)[C@H](CCCCN)NC(=O)[C@H](C)NC(=O)[C@H](CC(C)C)NC(=O)[C@H](CCCCN)NC(=O)[C@H](C)NC(=O)[C@H](CC(C)C)NC(=O)[C@H](CC(C)C)NC(=O)[C@H](CCCCN)NC(=O)[C@H](C)NC(=O)[C@@H](N)Cc1ccccc1)C(N)=O [compound 54]
[1]
  MBC E. coli A.25922: 15 mg/L (≈ 10.6 µM)
[2]
  MBC P. aerug A.27853: 40 mg/L (≈ 28.3 µM)
[3]
  MBC S. aur A.25923: 15 mg/L (≈ 10.6 µM)
[4]
  MFC Candida A.10231: 30 mg/L (≈ 21.2 µM)

## FAFGKGIGKIGKKGL-NH2 [compound 138]
[1]
  MBC E. coli A.25922: INACT
[2]
  MBC P. aerug A.27853: INACT
[3]
  MBC S. aur A.25923: INACT
[4]
  MFC Candida A.10231: INACT

## CC(C)C[C@H](NC(=O)[C@H](CCCCN)NC(=O)[C@H](C)NC(=O)[C@H](CC(C)C)NC(=O)[C@H](CC(C)C)NC(=O)[C@H](CCCCN)NC(=O)[C@H](C)NC(=O)[C@@H](N)Cc1ccccc1)C(=O)N[C@@H](C)C(=O)N[C@@H](CCCCN)C(=O)N[C@@H](CCCCN)C(=O)N[C@@H](C)C(=O)N[C@@H](C)C(N)=O [compound 93]
[1]
  MBC E. coli A.25922: >50 mg/L
[2]
  MBC P. aerug A.27853: >50 mg/L
[3]
  MBC S. aur A.25923: >50 mg/L
[4]
  MFC Candida A.10231: >50 mg/L

## CC(C)C[C@H](NC(=O)[C@H](CCCCN)NC(=O)[C@H](C)NC(=O)[C@H](CC(C)C)NC(=O)[C@H](CC(C)C)NC(=O)[C@H](CCCCN)NC(=O)[C@H](C)NC(=O)[C@@H](N)Cc1ccccc1)C(=O)N[C@@H](C)C(=O)N[C@@H](CCCCN)C(=O)N[C@@H](C)C(=O)N[C@@H](CCCCN)C(=O)NCC(N)=O [compound 96]
[1]
  MBC E. coli A.25922: >50 mg/L
[2]
  MBC P. aerug A.27853: >50 mg/L
[3]
  MBC S. aur A.25923: >50 mg/L
[4]
  MFC Candida A.10231: >50 mg/L

## FAFAKIIAKIAKKII-NH2 [compound 140]
[1]
  MBC E. coli A.25922: INACT
[2]
  MBC P. aerug A.27853: INACT
[3]
  MBC S. aur A.25923: INACT
[4]
  MFC Candida A.10231: INACT

## CC(C)C[C@H](NC(=O)[C@H](C)NC(=O)[C@H](CCCCN)NC(=O)[C@H](CCCCN)NC(=O)[C@H](C)NC(=O)[C@H](CC(C)C)NC(=O)[C@H](CCCCN)NC(=O)[C@H](C)NC(=O)[C@H](CC(C)C)NC(=O)[C@H](CC(C)C)NC(=O)[C@H](CCCCN)NC(=O)[C@H](C)NC(=O)[C@@H](N)Cc1ccc(O)cc1)C(N)=O [compound 155]
[1]
  MBC E. coli A.25922: >250 mg/L
[2]
  MBC P. aerug A.27853: >250 mg/L
[3]
  MBC S. aur A.25923: >250 mg/L
[4]
  MFC Candida A.10231: >250 mg/L

## CC(C)C[C@H](NC(=O)[C@H](CCCCN)NC(=O)[C@H](CCCCN)NC(=O)[C@H](C)NC(=O)[C@H](CC(C)C)NC(=O)[C@H](CCCCN)NC(=O)[C@H](C)NC(=O)[C@H](CC(C)C)NC(=O)[C@H](CC(C)C)NC(=O)[C@H](CCCCN)NC(=O)[C@H](C)NC(=O)[C@@H](N)Cc1ccccc1)C(N)=O [compound 49]
[1]
  MBC E. coli A.25922: 40 mg/L (≈ 29.8 µM)
[2]
  MBC P. aerug A.27853: 30 mg/L (≈ 22.3 µM)
[3]
  MBC S. aur A.25923: 50 mg/L (≈ 37.2 µM)
[4]
  MFC Candida A.10231: 30 mg/L (≈ 22.3 µM)

## CC(C)C[C@H](NC(=O)[C@H](CCCCN)NC(=O)[C@H](CCCCN)NC(=O)[C@H](C)NC(=O)[C@H](CC(C)C)NC(=O)[C@H](CCCCN)NC(=O)[C@H](CCCCN)NC(=O)[C@H](CC(C)C)NC(=O)[C@H](CCCCN)NC(=O)[C@H](CCCCN)NC(=O)[C@H](C)NC(=O)[C@@H](N)Cc1ccccc1)C(N)=O [compound 79]
[1]
  MBC E. coli A.25922: >50 mg/L
[2]
  MBC P. aerug A.27853: >50 mg/L
[3]
  MBC S. aur A.25923: >50 mg/L
[4]
  MFC Candida A.10231: >50 mg/L

## CC(C)C[C@H](NC(=O)[C@H](CCCCN)NC(=O)[C@H](CC(C)C)NC(=O)[C@H](CC(C)C)NC(=O)[C@H](C)NC(=O)[C@@H](N)Cc1ccccc1)C(N)=O [compound 168]
[1]
  MBC E. coli A.25922: 75 mg/L (≈ 107 µM)
[2]
  MBC P. aerug A.27853: 100 mg/L (≈ 142 µM)
[3]
  MBC S. aur A.25923: >250 mg/L
[4]
  MFC Candida A.10231: 150 mg/L (≈ 213 µM)

## CC[C@H](C)[C@H](NC(=O)CNC(=O)[C@H](CC(C)C)NC(=O)[C@H](CCCCN)NC(=O)[C@H](C)NC(=O)[C@H](CC(C)C)NC(=O)[C@H](C)NC(=O)[C@@H](NC(=O)[C@H](CCCCN)NC(=O)[C@H](C)NC(=O)[C@@H](NC(=O)[C@@H](N)CCCCN)[C@@H](C)CC)C(C)C)C(=O)NCC(=O)N[C@@H](C)C(=O)N[C@H](C(=O)N[C@@H](CC(C)C)C(=O)N[C@@H](CCCCN)C(=O)N[C@H](C(=O)N[C@@H](CC(C)C)C(=O)N[C@H](C(=O)N[C@H](C(=O)NCC(=O)N[C@@H](CC(C)C)C(N)=O)[C@@H](C)O)[C@@H](C)O)C(C)C)C(C)C [compound 105]
[1]
  MBC E. coli A.25922: 25 mg/L (≈ 11 µM)
[2]
  MBC P. aerug A.27853: >50 mg/L
[4]
  MFC Candida A.10231: >50 mg/L

## CC(C)C[C@H](NC(=O)[C@H](C)NC(=O)[C@H](CCCCN)NC(=O)[C@H](C)NC(=O)[C@H](CC(C)C)NC(=O)[C@H](CCCCN)NC(=O)[C@H](CCCCN)NC(=O)[C@H](C)NC(=O)[C@H](CC(C)C)NC(=O)[C@H](CCCCN)NC(=O)[C@H](C)NC(=O)[C@H](CC(C)C)NC(=O)[C@H](CCCCN)NC(=O)[C@H](CCCCN)NC(=O)[C@H](C)NC(=O)[C@@H](N)Cc1ccccc1)C(N)=O [compound 109]
[3]
  MBC S. aur A.25923: 80 mg/L (≈ 45.9 µM)
[4]
  MFC Candida A.10231: >50 mg/L

## CC[C@H](C)[C@H](NC(=O)[C@H](CC(N)=O)NC(=O)[C@H](CCCNC(=N)N)NC(=O)CNC(=O)[C@H](CCSC)NC(=O)[C@H](CCCCN)NC(=O)[C@H](CCC(=O)O)NC(=O)[C@@H](NC(=O)[C@H](CCCCN)NC(=O)[C@H](CC(C)C)NC(=O)[C@H](Cc1ccccc1)NC(=O)[C@@H](NC(=O)[C@H](CCCCN)NC(=O)[C@H](CCC(=O)O)NC(=O)[C@H](CCCCN)NC(=O)[C@@H]1CCCN1C(=O)[C@@H](N)CCSC)C(C)C)[C@@H](C)CC)C(=O)N[C@@H](CCCNC(=N)N)C(=O)N[C@@H](CC(N)=O)C(N)=O [compound 107]
[2]
  MBC P. aerug A.27853: >50 mg/L
[3]
  MBC S. aur A.25923: >50 mg/L
[4]
  MFC Candida A.10231: >50 mg/L

## CC(C)C[C@H](NC(=O)[C@H](CCCCN)NC(=O)[C@H](CCCCN)NC(=O)[C@H](C)NC(=O)[C@H](CC(C)C)NC(=O)[C@H](CCCCN)NC(=O)[C@H](C)NC(=O)[C@H](CC(C)C)NC(=O)[C@H](CCCCN)NC(=O)[C@H](CCCCN)NC(=O)[C@H](C)NC(=O)[C@@H](N)Cc1ccccc1)C(N)=O [compound 106]
[1]
  MBC E. coli A.25922: 50 mg/L (≈ 36.8 µM)
[2]
  MBC P. aerug A.27853: >50 mg/L
[4]
  MFC Candida A.10231: >50 mg/L
